This passage reports IC50 and Ratio IC50 results from ChEMBL document CHEMBL4265883, “Nav1.7 inhibitors for the treatment of chronic pain” (Bioorg Med Chem Lett, 2018).

The target in assay [1] is Sodium channel protein type 9 subunit alpha (Homo sapiens, UniProt Q15858). Nature of the assay: Inhibition of human Nav1.7 expressed in HEK293 cells by electrophysiology assay. It is filed as cell-based.
Assay [2] is filed under the species Homo sapiens. As to the kind of experiment: Selectivity ratio of IC50 for human Nav1.5 to IC50 for human Nav1.7.

A word on the IC50: it is the concentration that gives 50% inhibition. High values mean weaker potency in that assay, low ones greater potency in that assay.

Sequence of Sodium channel protein type 9 subunit alpha (Q15858 whole entry): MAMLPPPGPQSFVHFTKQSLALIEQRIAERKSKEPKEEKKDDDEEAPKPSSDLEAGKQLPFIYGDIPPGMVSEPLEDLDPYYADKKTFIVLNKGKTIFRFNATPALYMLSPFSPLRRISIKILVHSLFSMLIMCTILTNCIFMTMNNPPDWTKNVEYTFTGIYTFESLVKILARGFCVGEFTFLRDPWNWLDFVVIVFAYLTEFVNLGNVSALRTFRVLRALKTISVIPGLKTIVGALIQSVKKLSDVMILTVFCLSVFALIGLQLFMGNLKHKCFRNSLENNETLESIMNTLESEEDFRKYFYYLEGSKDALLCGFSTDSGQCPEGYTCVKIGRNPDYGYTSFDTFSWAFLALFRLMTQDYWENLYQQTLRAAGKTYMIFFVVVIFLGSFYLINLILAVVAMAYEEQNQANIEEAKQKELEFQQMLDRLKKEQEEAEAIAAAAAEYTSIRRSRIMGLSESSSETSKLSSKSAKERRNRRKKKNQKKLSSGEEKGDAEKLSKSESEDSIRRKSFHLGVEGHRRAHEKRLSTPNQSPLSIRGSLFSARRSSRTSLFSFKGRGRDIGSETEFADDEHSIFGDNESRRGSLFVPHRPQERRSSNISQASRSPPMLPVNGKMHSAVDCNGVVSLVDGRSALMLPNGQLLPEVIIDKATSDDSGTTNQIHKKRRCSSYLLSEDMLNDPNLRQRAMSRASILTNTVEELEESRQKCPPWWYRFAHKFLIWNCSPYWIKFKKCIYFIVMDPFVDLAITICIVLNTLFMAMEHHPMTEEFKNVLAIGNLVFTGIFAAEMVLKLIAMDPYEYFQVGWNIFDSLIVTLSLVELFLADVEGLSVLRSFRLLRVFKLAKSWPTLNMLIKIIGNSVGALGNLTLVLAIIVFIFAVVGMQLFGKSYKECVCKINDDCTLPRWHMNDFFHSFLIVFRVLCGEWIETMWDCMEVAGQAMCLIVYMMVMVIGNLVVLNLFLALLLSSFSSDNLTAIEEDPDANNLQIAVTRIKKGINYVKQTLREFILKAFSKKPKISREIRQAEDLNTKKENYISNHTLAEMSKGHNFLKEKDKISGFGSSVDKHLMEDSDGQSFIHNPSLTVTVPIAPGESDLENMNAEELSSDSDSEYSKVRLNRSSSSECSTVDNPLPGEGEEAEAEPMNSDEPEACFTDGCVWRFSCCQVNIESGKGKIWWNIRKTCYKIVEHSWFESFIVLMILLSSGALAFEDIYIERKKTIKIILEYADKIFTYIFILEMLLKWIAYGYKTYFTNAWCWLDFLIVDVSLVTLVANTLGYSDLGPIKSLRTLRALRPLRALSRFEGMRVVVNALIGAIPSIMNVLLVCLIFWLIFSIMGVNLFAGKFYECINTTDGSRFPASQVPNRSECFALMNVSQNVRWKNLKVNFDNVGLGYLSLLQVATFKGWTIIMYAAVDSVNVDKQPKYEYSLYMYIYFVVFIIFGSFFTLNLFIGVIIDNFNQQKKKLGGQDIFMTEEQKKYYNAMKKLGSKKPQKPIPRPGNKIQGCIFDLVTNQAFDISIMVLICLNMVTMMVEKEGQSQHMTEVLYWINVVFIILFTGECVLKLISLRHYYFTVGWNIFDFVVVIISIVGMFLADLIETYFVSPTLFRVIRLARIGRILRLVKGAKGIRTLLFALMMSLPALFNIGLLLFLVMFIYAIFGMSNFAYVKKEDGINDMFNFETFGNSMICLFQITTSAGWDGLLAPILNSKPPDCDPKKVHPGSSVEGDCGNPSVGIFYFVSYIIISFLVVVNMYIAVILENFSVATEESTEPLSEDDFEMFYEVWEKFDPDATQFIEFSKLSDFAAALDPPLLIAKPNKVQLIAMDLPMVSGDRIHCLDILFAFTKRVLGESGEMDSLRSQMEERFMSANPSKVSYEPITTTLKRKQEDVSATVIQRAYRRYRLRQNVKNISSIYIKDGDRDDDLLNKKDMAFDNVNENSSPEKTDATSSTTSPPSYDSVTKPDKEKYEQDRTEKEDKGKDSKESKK

`CN[C@H](CNc1cc(F)c(S(=O)(=O)Nc2nccs2)cc1Cl)Cc1cccc(Cl)c1` registered an IC50 in assay [1] of 15 nM. In assay [2], the Ratio IC50 is greater than 1380.

As to `O=C(O)[C@@H]1C[C@@H](F)CN1C(=O)c1cc(C2CC2)c(OCC2CCN(Cc3c(Cl)cccc3Cl)CC2)cc1F`, the Ratio IC50 in assay [2] is greater than 150. In turn, `Cc1nn(-c2cnc(OCC(C)C)c(Cl)c2)c2ccc(C(=O)NS(C)(=O)=O)cc12` [PF-05241328] returned an IC50 in assay [1] of 31 nM.
